Experimental data reported in US12091402B2 (Avilar Therapeutics, Inc., priority 2021, dated 2024).
Like-named read-outs stand apart in the source and are kept apart here. Where a SMILES comes first, the peptide text is derived from it. Bridges are numbered along the chain shown (N, C = ends). [ ]: non-standard residue; d: D form. The star is where a group is joined. X4 = O=C(CCCc1cn(C[C@H]2OC[C@H](Nc3nccc(C(F)(F)F)n3)[C@@H](O)[C@H]2O)nn1)*; Pro(4S-NH2) = N[C@@H]1CN[C@H](C(=O)O)C1; PEG4 = NCCOCCOCCOCCOCCC(=O)O; hSer = N[C@@H](CCO)C(=O)O

Assays:
[1] = target: IgG; assay: Affinity to IgG by surface plasmon resonance (SPR); format: binding
Procedure: Immobilization levels ranging from 1000-1300 resonance units (RU) are obtained. The running buffer is 10 mM HEPES, pH 7.4, 400 mM NaCl, 0.005% P20, […].

[2] = target: T1, ASGPR (Homo sapiens, UniProt P07306); assay: Affinity to ASGPR by surface plasmon resonance (SPR)
T1 sequence (P07306 1-291): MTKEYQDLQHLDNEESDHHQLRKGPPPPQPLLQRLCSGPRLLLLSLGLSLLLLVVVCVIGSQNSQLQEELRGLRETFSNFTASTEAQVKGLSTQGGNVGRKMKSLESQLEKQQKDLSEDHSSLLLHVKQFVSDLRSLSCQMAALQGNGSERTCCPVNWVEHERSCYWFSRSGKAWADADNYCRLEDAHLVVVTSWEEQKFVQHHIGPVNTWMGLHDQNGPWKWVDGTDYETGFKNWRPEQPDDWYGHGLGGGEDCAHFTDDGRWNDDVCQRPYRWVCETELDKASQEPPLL

[3] = Biacore 8K, 25° C., IgG on CM5 chip, read-out: IgG SPR Binding Kd

| SMILES | Kd ([1]; SPR, read-out: IgG KD) | Kd [1, 3] | Kd [2] |
| --- | --- | --- | --- |
| CC(C)C[C@@H]1NC(=O)[C@H](Cc2cnc[nH]2)NC(=O)[C@H](Cc2c[nH]c3ccccc23)NC(=O)[C@H](C)NC(=O)[C@@H]2CC/C=C/C[C@H](NC(=O)[C@H](Cc3c[nH]c4ccccc34)NC(=O)[C@H](C(C)C)NC(=O)[C@H](CC(C)C)NC(=O)[C@H](CCC(=O)O)NC(=O)CNC1=O)C(=O)N[C@@H]([C@@H](C)O)C(=O)N1CCC[C@@H]1C(=O)N1CCC[C@H]1C(=O)N[C@@H](CC(=O)O)C(=O)N2 | < 100 nM | – | – |
| CC(C)C[C@@H]1NC(=O)[C@H](C)NC(=O)CNC(=O)[C@H](CC(C)C)NC(=O)[C@H](Cc2cnc[nH]2)NC(=O)[C@H](Cc2c[nH]c3ccccc23)NC(=O)[C@H](C)NC(=O)[C@@H]2CSSC[C@H](NC(=O)[C@H](Cc3c[nH]c4ccccc34)NC(=O)[C@H](C(C)C)NC1=O)C(=O)N[C@@H]([C@@H](C)O)C(=O)N1CCC[C@@H]1C(=O)N1C[C@@H](N)C[C@H]1C(=O)N[C@@H](CC(N)=O)C(=O)N2 [Intermediate 28] (cyclo(ALVWCT[dP][Pro(4S-NH2)]NCAWHLG); disulfide 5-10) | < 100 nM | < 100 nM | – |
| CC(C)C[C@@H]1NC(=O)[C@H](Cc2cnc[nH]2)NC(=O)[C@H](Cc2c[nH]c3ccccc23)NC(=O)[C@H](C)NC(=O)[C@@H]2CSSC[C@H](NC(=O)[C@H](Cc3c[nH]c4ccccc34)NC(=O)[C@H](C(C)C)NC(=O)[C@H](CC(C)C)NC(=O)[C@H](CCC(=O)O)NC(=O)CNC1=O)C(=O)N[C@@H]([C@@H](C)O)C(=O)N1CCC[C@@H]1C(=O)N1C[C@@H](N)C[C@H]1C(=O)N[C@@H](C)C(=O)N2 [Intermediate 12] | < 100 nM | < 100 nM | – |
| CC(C)C[C@@H]1NC(=O)[C@H](Cc2cnc[nH]2)NC(=O)[C@H](Cc2c[nH]c3ccccc23)NC(=O)[C@H](C)NC(=O)[C@@H]2CSSC[C@H](NC(=O)[C@H](Cc3c[nH]c4ccc(Cl)cc34)NC(=O)[C@H](C(C)C)NC(=O)[C@H](CC(C)C)NC(=O)[C@H](CCC(=O)O)NC(=O)CNC1=O)C(=O)N[C@@H]([C@@H](C)O)C(=O)N1CCC[C@@H]1C(=O)N1C[C@@H](N)C[C@H]1C(=O)N[C@@H](CC(=O)O)C(=O)N2 [Intermediate 29] | < 100 nM | < 100 nM | – |
| CC(C)C[C@@H]1NC(=O)[C@H](C)NC(=O)CNC(=O)[C@H](CC(C)C)NC(=O)[C@H](Cc2cnc[nH]2)NC(=O)[C@H](Cc2c[nH]c3ccccc23)NC(=O)[C@H](C)NC(=O)[C@@H]2CSSC[C@H](NC(=O)[C@H](Cc3c[nH]c4ccccc34)NC(=O)[C@H](C(C)C)NC1=O)C(=O)N[C@@H]([C@@H](C)O)C(=O)N1CCC[C@@H]1C(=O)N1C[C@@H](N)C[C@H]1C(=O)N[C@@H](C)C(=O)N2 [Intermediate 25] (cyclo(ACAWHLGALVWCT[dP][Pro(4S-NH2)]); disulfide 2-12) | < 100 nM | < 100 nM | – |
| C#CCCCC(=O)NCCOCCOCCOCCOCCNC(=O)CC[C@@H]1NC(=O)CNC(=O)[C@H](CC(C)C)NC(=O)[C@H](Cc2cnc[nH]2)NC(=O)[C@H](Cc2c[nH]c3ccccc23)NC(=O)[C@H](C)NC(=O)[C@@H](NC(=O)[C@@H](N)CC(=O)O)CSSC[C@@H](C(=O)N[C@H](C(N)=O)[C@@H](C)O)NC(=O)[C@H](Cc2c[nH]c3ccccc23)NC(=O)[C@H](C(C)C)NC(=O)[C@H](CC(C)C)NC1=O [Intermediate 2] | – | < 100 nM | – |
| CC(C)C[C@@H]1NC(=O)[C@H](Cc2cnc[nH]2)NC(=O)[C@H](Cc2c[nH]c3ccccc23)NC(=O)[C@H](C)NC(=O)[C@@H]2CSSC[C@H](NC(=O)[C@H](Cc3c[nH]c4ccccc34)NC(=O)[C@H](C(C)C)NC(=O)[C@H](CC(C)C)NC(=O)[C@H](CCC(=O)O)NC(=O)CNC1=O)C(=O)N[C@@H]([C@@H](C)O)C(=O)N1CCC[C@@H]1C(=O)N1C[C@@H](N)C[C@H]1C(=O)N[C@@H](CC(N)=O)C(=O)N2 [Intermediate 13] (cyclo(AWHLGELVWCT[dP][Pro(4S-NH2)]NC); disulfide 10-15) | < 100 nM | < 100 nM | – |
| CC(C)C[C@@H]1NC(=O)[C@H](Cc2cnc[nH]2)NC(=O)[C@H](Cc2c[nH]c3ccccc23)NC(=O)[C@H](CCO)NC(=O)[C@@H]2CSSC[C@H](NC(=O)[C@H](Cc3c[nH]c4ccccc34)NC(=O)[C@H](C(C)C)NC(=O)[C@H](CC(C)C)NC(=O)[C@H](CCC(=O)O)NC(=O)CNC1=O)C(=O)N[C@@H]([C@@H](C)O)C(=O)N1CCC[C@@H]1C(=O)N1C[C@@H](N)C[C@H]1C(=O)N[C@@H](CC(=O)O)C(=O)N2 [Intermediate 21] (cyclo(CT[dP][Pro(4S-NH2)]DC[hSer]WHLGELVW); disulfide 1-6) | < 100 nM | < 100 nM | – |
| CC(C)C[C@@H]1NC(=O)[C@H](Cc2cnc[nH]2)NC(=O)[C@H](Cc2c[nH]c3ccccc23)NC(=O)[C@H](C)NC(=O)[C@@H]2CSSC[C@H](NC(=O)[C@H](Cc3c[nH]c4ccccc34)NC(=O)[C@H](C(C)C)NC(=O)[C@H](CC(C)C)NC(=O)[C@H](CCC(=O)N(C)C)NC(=O)CNC1=O)C(=O)N[C@@H]([C@@H](C)O)C(=O)N1CCC[C@@H]1C(=O)N1C[C@@H](N)C[C@H]1C(=O)N[C@@H](CC(=O)O)C(=O)N2 [Intermediate 23] | < 100 nM | < 100 nM | – |
| C#CCCCC(=O)NCCOCCOCCOCCOCCC(=O)N[C@@H](CC(=O)O)C(=O)N[C@H]1CSSC[C@@H](C(=O)N[C@H](C(N)=O)[C@@H](C)O)NC(=O)[C@H](Cc2c[nH]c3ccccc23)NC(=O)[C@H](C(C)C)NC(=O)[C@H](CC(C)C)NC(=O)[C@H](CCC(=O)O)NC(=O)CNC(=O)[C@H](CC(C)C)NC(=O)[C@H](Cc2cnc[nH]2)NC(=O)[C@H](Cc2c[nH]c3ccccc23)NC(=O)[C@H](C)NC1=O [Intermediate 1] | < 100 nM | < 100 nM | – |
| CC(C)C[C@@H]1NC(=O)[C@H](Cc2cnc[nH]2)NC(=O)[C@H](Cc2c[nH]c3ccccc23)NC(=O)[C@H](C)NC(=O)[C@@H]2CSSC[C@H](NC(=O)[C@H](Cc3c[nH]c4cc(Cl)ccc34)NC(=O)[C@H](C(C)C)NC(=O)[C@H](CC(C)C)NC(=O)[C@H](CCC(=O)O)NC(=O)CNC1=O)C(=O)N[C@@H]([C@@H](C)O)C(=O)N1CCC[C@@H]1C(=O)N1C[C@@H](N)C[C@H]1C(=O)N[C@@H](CC(=O)O)C(=O)N2 [Intermediate 19] | < 100 nM | < 100 nM | – |
| CNC(=O)CC[C@@H]1NC(=O)CNC(=O)[C@H](CC(C)C)NC(=O)[C@H](Cc2cnc[nH]2)NC(=O)[C@H](Cc2c[nH]c3ccccc23)NC(=O)[C@H](C)NC(=O)[C@@H]2CSSC[C@H](NC(=O)[C@H](Cc3c[nH]c4ccccc34)NC(=O)[C@H](C(C)C)NC(=O)[C@H](CC(C)C)NC1=O)C(=O)N[C@@H]([C@@H](C)O)C(=O)N1CCC[C@@H]1C(=O)N1C[C@@H](N)C[C@H]1C(=O)N[C@@H](CC(=O)O)C(=O)N2 [Intermediate 22] | < 100 nM | < 100 nM | – |
| C#CCCCC(=O)NCCOCCC(=O)N[C@H]1C[C@H]2C(=O)N[C@@H](CC(=O)O)C(=O)N[C@H]3CSSC[C@H](NC(=O)[C@H](Cc4c[nH]c5ccccc45)NC(=O)[C@H](C(C)C)NC(=O)[C@H](CC(C)C)NC(=O)[C@H](CCC(=O)O)NC(=O)CNC(=O)[C@H](CC(C)C)NC(=O)[C@H](Cc4cnc[nH]4)NC(=O)[C@H](Cc4c[nH]c5ccccc45)NC(=O)[C@H](C)NC3=O)C(=O)N[C@@H]([C@@H](C)O)C(=O)N3CCC[C@@H]3C(=O)N2C1 [Intermediate 7] | – | < 100 nM | – |
| CC(C)C[C@@H]1NC(=O)[C@H](Cc2cnc[nH]2)NC(=O)[C@H](Cc2c[nH]c3ccccc23)NC(=O)[C@H](C)NC(=O)[C@@H]2CSSC[C@H](NC(=O)[C@H](Cc3c[nH]c4ccccc34)NC(=O)[C@H](C(C)C)NC(=O)[C@H](CC(C)C)NC(=O)[C@H](CCC(=O)O)NC(=O)CNC1=O)C(=O)N[C@@H]([C@@H](C)O)C(=O)N1CCC[C@@H]1C(=O)N1C[C@@H](N)C[C@H]1C(=O)N[C@@H](CC(=O)O)C(=O)N2 [Intermediate 5] | – | < 100 nM | – |
| CC(C)C[C@@H]1NC(=O)[C@H](Cc2cnc[nH]2)NC(=O)[C@H](Cc2c[nH]c3ccccc23)NC(=O)[C@H](C)NC(=O)[C@@H]2CSSC[C@H](NC(=O)[C@H](Cc3c[nH]c4ccccc34)NC(=O)[C@H](C(C)C)NC(=O)[C@H](CC(C)C)NC(=O)[C@H](CCC(=O)N(C)C)NC(=O)CNC1=O)C(=O)N[C@@H]([C@@H](C)O)C(=O)N1CCC[C@@H]1C(=O)N1C[C@@H](N)C[C@H]1C(=O)N[C@@H](CC(N)=O)C(=O)N2 [Intermediate 27] (cyclo(AWHLGE(NMe2)LVWCT[dP][Pro(4S-NH2)]NC); disulfide 10-15) | < 100 nM | < 100 nM | – |
| O[C@@H]1[C@H](O)[C@@H](Nc2nccc(C(F)(F)F)n2)CO[C@@H]1c1nc2ccc(Br)cc2[nH]1 [A94, (2R,3R,4R,5S)-2-(6-bromo-1H-benzo[d]imidazol-2-yl)-5-((4-(trifluoromethyl)pyrimidin-2-yl)amino)tetrahydro-2H-pyran-3,4-diol] | – | – | > 20000 nM |
| CC(C)C[C@@H]1NC(=O)[C@@H](NC(=O)[C@@H](NC(=O)[C@H](CCC(N)=O)NC(=O)[C@H](Cc2c[nH]cn2)NC(=O)CCOCCOCCOCCOCCNC(=O)CCCc2cn(C[C@H]3OC[C@H](Nc4nccc(C(F)(F)F)n4)[C@@H](O)[C@H]3O)nn2)C(C)C)CSSC[C@@H](C(=O)N[C@@H](Cc2ccccc2)C(=O)N[C@@H](CO)C(=O)N[C@H](C(N)=O)[C@@H](C)O)NC(=O)[C@H](C(C)C)NC(=O)[C@@H]2CCCN2C(=O)[C@H](CCCNC(=N)N)NC(=O)CNC(=O)[C@H](CCCNC(=N)N)NC(=O)[C@H](Cc2ccc(O)cc2)NC(=O)[C@H](CO)NC1=O [Compound 18] ({X4-PEG4}-HQVCLSYRGRPVCFST-NH2; disulfide 4-13) | – | – | 500 to 1000 nM |
| C=CCO[C@H]1O[C@H](CN=[N+]=[N-])[C@H](O)[C@H](O)[C@H]1Nc1nccc(C(F)(F)F)n1 [A72, (2R,3R,4R,5R,6S)-6-(allyloxy)-2-(azidomethyl)-5-((4-(trifluoromethyl)pyrimidin-2-yl)amino)tetrahydro-2H-pyran-3,4-diol] | – | – | < 1000 nM |
